These results are taken from PubChem BioAssay (NCI).

SMILES strings stand for the structures.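 These data come from cells grown in 96-well plates and exposed to compound for 48 hours at five concentrations. GI50 marks 50% less growth. TGI is the concentration that stops growth completely.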

Some test systems named below: T-47D breast; 786-0 renal; LOX IMVI melanoma; SF-268 CNS; ACHN renal; BT-549 breast; NCI/ADR-RES ovarian; MDA-MB-231 breast; HS 578T breast.
Holding throughout (experiment): DTP human tumour cell line panel, 48 h

With `COc1cc(/C=C2\CC3C4CC=C5C[C@@H](OC(C)=O)CC[C@]5(C)C4CC[C@]3(C)C2=O)ccc1OCCN1CCCCC1` (stereo partly drawn), the GI50 (as a rule, the concentration that inhibits growth by half) is 2.98 µM with T-47D breast; 1.66 µM in the experiment on 786-0 renal; 1.26 µM in the experiment with LOX IMVI melanoma; 3.39 µM in the experiment with SF-268 CNS; 3.64 µM in the experiment on ACHN renal; 15.1 µM in the experiment on BT-549 breast. Also, the GI50 was 3.56 µM in the experiment with NCI/ADR-RES ovarian and 3.31 µM in the experiment with MDA-MB-231 breast. The TGI (commonly the concentration at which net growth stops) with T-47D breast stood at 13.1 µM; in the experiment with 786-0 renal, 3.1 µM; with LOX IMVI melanoma, 3.31 µM; in the experiment with SF-268 CNS it was 31.4 µM; in the experiment on ACHN renal it was 14.4 µM; with BT-549 breast, 31.7 µM. In addition, the TGI in the experiment with NCI/ADR-RES ovarian was 6.89 µM; in the experiment on MDA-MB-231 breast it was 7.89 µM.
On to `C=CCC1(CN(C)C)CC/C(=C\c2ccc(OC)cc2)C1=O` (stereo not drawn), for which the total growth inhibition concentration (TGI) in the experiment on 786-0 renal, with LOX IMVI melanoma, in the experiment on SF-268 CNS and in the experiment on ACHN renal was more than 100 µM in each case.
For the compound `CC(C)N(C(=O)C12C3C4C5(C#N)C3C1(C#N)C5C42C#N)C(C)C` (stereo not drawn), the TGI in the experiment with 786-0 renal, in the experiment on LOX IMVI melanoma, in the experiment with SF-268 CNS and with ACHN renal was more than 100 µM each time.
`CSc1ccc2c(cc1=O)[C@@H](NC(=O)c1cccc([N+](=O)[O-])c1)CCc1cc(O)c(O)c(O)c1-2`: the TGI in the experiment with 786-0 renal is more than 100 µM; in the experiment with LOX IMVI melanoma, 32.2 µM; in the experiment with SF-268 CNS, more than 100 µM; with ACHN renal, more than 100 µM.
Take `Clc1c(Cl)[n+](Cc2ccc3ccccc3c2)cn1Cc1ccc2ccccc2c1`: the GI50 was 0.504 µM with T-47D breast; 1.65 µM with 786-0 renal; 1.26 µM in the experiment on LOX IMVI melanoma; 1.22 µM in the experiment with SF-268 CNS; 1.92 µM with ACHN renal; 1.67 µM in the experiment on BT-549 breast. In addition, the GI50 is 1.71 µM in the experiment with HS 578T breast, 16.3 µM in the experiment on NCI/ADR-RES ovarian and 1.42 µM with MDA-MB-231 breast. Further, the total growth inhibition concentration (TGI) in the experiment on T-47D breast came out at 2.09 µM; in the experiment with 786-0 renal it was 3.11 µM; with LOX IMVI melanoma it was 2.52 µM; with SF-268 CNS it was 2.55 µM; with ACHN renal it was 3.66 µM; in the experiment with BT-549 breast, 3.09 µM. The TGI in the experiment with HS 578T breast stood at 4.41 µM; with NCI/ADR-RES ovarian, 38 µM; in the experiment on MDA-MB-231 breast, 2.93 µM.
For `C/C=C(\C)c1cc(=O)c2c(C)cc3c(c2o1)C(=O)c1c(O)c(C2CC(C)(N(C)C)C(OC(C)=O)C(C)O2)cc(C2CC(N(C)C)C(O)C(C)O2)c1C3=O` (stereo not drawn), the TGI in the experiment on T-47D breast was 38.2 µM; in the experiment on 786-0 renal, 5.68 µM; with LOX IMVI melanoma, 6.91 µM; in the experiment on SF-268 CNS, 9.56 µM; in the experiment on ACHN renal, 10 µM; in the experiment on BT-549 breast it was 3.42 µM. For the same compound, the values for the TGI with HS 578T breast, in the experiment with NCI/ADR-RES ovarian and with MDA-MB-231 breast were 18.6 µM, 9.16 µM and 5.96 µM, respectively.
With `COc1ccc2ncn(-c3cc(O[C@H](C)c4ccccc4C(F)(F)F)c(C(N)=O)s3)c2c1`, the GI50 in the experiment with T-47D breast was 2.86 µM; in the experiment with 786-0 renal, 0.592 µM; in the experiment on LOX IMVI melanoma it was 0.105 µM; in the experiment with SF-268 CNS, 0.235 µM; in the experiment on ACHN renal, 3.17 µM; in the experiment with BT-549 breast it was 0.474 µM. Moreover, the GI50 in the experiment on HS 578T breast is 0.31 µM; in the experiment on NCI/ADR-RES ovarian, 0.0586 µM; in the experiment with MDA-MB-231 breast it was 0.167 µM. Further, the TGI with T-47D breast was determined as 7.2 µM; in the experiment on 786-0 renal, 5.79 µM; with LOX IMVI melanoma, 3.56 µM; with SF-268 CNS it was 8.95 µM; with ACHN renal, 25 µM; with BT-549 breast it was 7 µM. Further, the TGI in the experiment with HS 578T breast came to 7.18 µM; in the experiment on NCI/ADR-RES ovarian it was 0.185 µM; with MDA-MB-231 breast it was 5.19 µM.
Regarding `NC(=O)NNC(=O)CCn1[nH]c(=O)c(Cl)c(Cl)c1=O`, the TGI in the experiment with 786-0 renal, in the experiment on LOX IMVI melanoma, in the experiment on SF-268 CNS and with ACHN renal was more than 100 µM each time.
In the case of `CCOC(=O)Cc1c(C)c2cc(C(=O)c3ccccc3)c(O)cc2oc1=O`, the TGI in the experiment with T-47D breast is 88.3 µM; with 786-0 renal, more than 100 µM; in the experiment on LOX IMVI melanoma it was more than 100 µM; in the experiment on SF-268 CNS, 84.9 µM; with ACHN renal, more than 100 µM; in the experiment with BT-549 breast it was 59.8 µM. Moreover, the TGI with HS 578T breast came out at 97.1 µM; in the experiment on NCI/ADR-RES ovarian it was 73.3 µM; in the experiment on MDA-MB-231 breast, 72 µM.
`CC(=O)O[C@@H]1C2CCC3C(CC[C@@]4(C)C3CC[C@@H]4C(C)N(C)C)[C@@]2(C)CC[C@@H]1NC(=O)C=C(C)C` (stereo partly drawn): the GI50 was 1.75 µM in the experiment on T-47D breast; 2.42 µM in the experiment with 786-0 renal; 1.47 µM in the experiment with LOX IMVI melanoma; 1.56 µM in the experiment with SF-268 CNS; 3.56 µM in the experiment with ACHN renal; 6.31 µM in the experiment on BT-549 breast. For the same compound, the GI50 in the experiment on HS 578T breast was 2.2 µM; in the experiment on NCI/ADR-RES ovarian it was 4.26 µM; in the experiment with MDA-MB-231 breast, 2.24 µM. For the same compound, the TGI in the experiment on T-47D breast was 6.23 µM; in the experiment on 786-0 renal, 6.73 µM; in the experiment on LOX IMVI melanoma, 3.09 µM; with SF-268 CNS, 3.31 µM; in the experiment with ACHN renal it was 12.8 µM; in the experiment with BT-549 breast it was 22.5 µM. For the same compound, the results for the TGI in the experiment on HS 578T breast, in the experiment with NCI/ADR-RES ovarian and in the experiment with MDA-MB-231 breast were 6.82 µM, 17.7 µM and 5.19 µM, respectively.
Take `CC1=N/C(=C/c2ccc3c(c2)OCO3)C(=O)O1`: the TGI in the experiment on 786-0 renal, with LOX IMVI melanoma, in the experiment with SF-268 CNS and with ACHN renal was more than 100 µM throughout.
`CCN(CC)CCCNc1nccc2c(C)c3c(cc12)c1cnccc1n3C`: the TGI came to 1.2 µM in the experiment on 786-0 renal, 0.268 µM in the experiment on LOX IMVI melanoma, 1.69 µM with SF-268 CNS and 2.41 µM in the experiment on ACHN renal.
Consider `COc1cc(/C=C/c2cc(/C=C/c3ccc(O)c(OC)c3)n(C(=O)c3ccc(Cl)cc3)n2)ccc1O`, for which the GI50 in the experiment with T-47D breast was 1.92 µM; in the experiment with 786-0 renal, 2.55 µM; in the experiment with SF-268 CNS it was 2.65 µM; with ACHN renal, 1.03 µM; in the experiment with BT-549 breast, 1.83 µM; with HS 578T breast it was 3.23 µM. The GI50 is 2.9 µM in the experiment on NCI/ADR-RES ovarian and 2.84 µM in the experiment with MDA-MB-231 breast. The TGI with T-47D breast is 5.86 µM; in the experiment on 786-0 renal, 16.2 µM; with SF-268 CNS it was 13.6 µM; with ACHN renal it was 13.7 µM; in the experiment with BT-549 breast, 8.32 µM; in the experiment on HS 578T breast, more than 100 µM. Further, the TGI in the experiment with NCI/ADR-RES ovarian came to 18 µM; with MDA-MB-231 breast it was 19.6 µM.
